Where two headings read alike, the source gives them in different places.
Legend:
[1] = system: cerebral cortical cell; test: anti-oxidant effect: neuron protecting effect against Fe+2 (50 uM FeCl2); format: cell-based; details: cerebral cortical cell treated by 50 uM FeCl2
Protocol: After cerebral cortical cell was treated by 50 uM FeCl2 to induce oxidative stress, the anti-oxidant effects of many compounds were evaluated. Results were shown as IC50 (uM) (Item A of Table 3 below).
(§1) In the Table 3, A, B and C mean neuron protecting effect against Fe^+2, suppressing effect on production of NO and suppressing effect on production of beta-amyloid, respectively. The term “ND” means “Not determined.”

[2] = system: BV-2 cell line (production of NO); test: anti-inflammatory effect: suppression of LPS-induced production of NO; format: cell-based; details: BV-2 cell line treated by LPS; for IC50: read-out: IC50 (uM) B: suppressing effect on production of NO
Protocol: After BV-2 cell line was treated by LPS to induce production of NO, the anti-inflammatory effects of many compounds were evaluated. Results were shown as IC50 (uM) (Item B of Table 3 below).
as §1

[3] = system: beta-amyloid (Aβ42); test: suppression of beta-amyloid (Aβ42) production in CHO cells (ELISA); format: cell-based, Chinese hamster
Protocol: The suppressing effects of many drug candidates on production of beta-amyloid were evaluated in CHO cell line having the increased level of beta-amyloid. Results were shown as IC50 (uM) (Item C of Table 3 below).
as §1
Cells were treated with increasing concentrations of various chemicals in Chinese hamster ovary (CHO) cells stably transfected with human wild APP695 and the PS1ΔExon9, and analyzed Aβ42 levels in culture medium by colorimetric sandwich ELISA kit (BIOSOURCE, Camarillo, Calif.). In CHO cells, IC50 of Chemical—01-08 on Aβ42 lowering effect was 20-100 uM (Table 4).

[4] = system: mixed cortical cell cultures containing neurons and glia; test: Fe2+-induced free radical neurotoxicity in mixed cortical cell cultures (LDH release); format: cell-based, mouse; details: 50 μM FeCl2, neuronal death 24 hr later (LDH), read-out: IC50 (50% protection against Fe^2+-induced free radical neurotoxicity)
Protocol: Mouse cortical cell cultures (DIV 11-15) were exposed to 50 μM Fe^2+ or 10 mM BSO, alone or with inclusion of 5 mM Li^+. Neuronal death was analyzed 24 hr later by measuring levels of LDH released into the bathing medium, mean±SEM (n=9-12 culture wells per condition).
Mouse cortical cell cultures (DIV 11-15) were exposed to 30 μM Fe^2+ or 10 mM BSO, alone or in the presence of 1 μM 2-hydroxy TTBA, 10-100 μM vitamin E, or 5 mM Li^+.
For mixed neuron-glia culture, mouse cerebral cortices were removed from brains of the 11-15 day-old-fetal mice (E11-15), gently triturated and plated on 24 well plates (2×10^5 cells/plate) precoated with 100 μg/ml poly-D-lysine and 4 pg/ml laminin. Cultures were maintained at 37° C. in a humidified 5% CO2 atmosphere.
After 7-8 days in vitro (DIV 7-8), 10 μM cytosine arabinofuranoside (Ara-C) was included to halt overgrowth of glia. The drug treatment was carried on DIV 11-15 cortical cell culture.
Oxidative stress was induced by exposing mixed cortical cell cultures containing neurons and glia (DIV 11-15) to 50 μM FeCl2, a hydroxyl radical-producing transition metal via a Fenton reaction, or 10 mM DL-buthionine-[S,R]-sulfoximine (BSO), a glutathione depleting agent.

[5] = CHO cell line having the increased level of beta-amyloid
[6] = Cricetulus griseus, CHO cell line having the increased level of beta-amyloid, read-out: IC50 (uM) C: suppressing effect on production of beta-amyloid
[7] = Cricetulus griseus, CHO cells stably transfected with human wild APP695 and PS1ΔExon9, culture medium, ELISA, read-out: Aβ42 lowering effect (IC50)

O=C(O)c1cc(NCCCc2ccc(F)cc2)ccc1O [Compound 28] gave an IC50 ([1]; Neuron) of 0.12 µM and an IC50 ([2]; Mus musculus) of 20.3 µM.
Compound CCOc1ccc(CCNc2ccc(O)c(C(=O)O)c2)cc1 [Compound 29] has an IC50 ([1]; Neuron) of 0.18 µM and an IC50 ([2]; Mus musculus) of 42.2 µM.
For Cc1cccc(CCNc2ccc(O)c(C(=O)O)c2)c1 [Compound 30], the IC50 ([1]; Neuron) was 0.39 µM, the IC50 ([2]; Mus musculus) was 23.6 µM and the “IC50 (uM) C: suppressing effect on production of beta-amyloid” value (“IC50 (uM) C: suppressing effect” below) [3, 5] was “No”.
O=C(O)c1cc(NCCc2ccc(F)cc2C(F)(F)F)ccc1O [Compound 31] gave an IC50 ([1]; Neuron) of 0.25 µM and an IC50 ([2]; Mus musculus) of 4.08 µM.
O=C(O)c1cc(NCCCc2ccccc2)ccc1O [Compound 32] showed an IC50 ([1]; Neuron) of 0.29 µM and an IC50 ([2]; Mus musculus) of 85.4 µM.
Compound O=C(O)c1cc(NCCc2ccc(F)c(C(F)(F)F)c2)ccc1O [Compound 33] has an IC50 [1] of 0.036 µM, an IC50 [2] of 31.1 µM and an IC50 ([3]; CHO cell line having the increased level of beta-amyloid, read-out: IC50 (uM) C: suppressing effect on production of beta-amyloid) greater than 100 µM.
For O=C(O)c1cc(NCCc2cc(F)cc(C(F)(F)F)c2)ccc1O [Compound 34], the IC50 ([1]; Neuron) was 0.13 µM, the IC50 ([2]; Mus musculus) was 98.8 µM and the “IC50 (uM) C: suppressing effect” value [3, 5] was “No”.
O=C(O)c1cc(NCCCc2ccc(F)c(F)c2)ccc1O [Compound 35] was tested, and the IC50 ([1]; Neuron) was 0.035 µM, the IC50 ([2]; Mus musculus) was 67.5 µM and the IC50 [3, 6] was greater than 100 µM.
O=C(O)c1cc(NCCc2ccc(C(F)(F)F)cc2F)ccc1O [Compound 36] showed an IC50 ([1]; Neuron) of 0.06 µM, an IC50 ([2]; Mus musculus) of 99.8 µM and an IC50 [3, 6] greater than 100 µM.
O=C(O)c1cc(NCCc2cc(F)ccc2C(F)(F)F)ccc1O [Compound 37] showed an IC50 ([1]; Neuron) of 0.27 µM and an IC50 ([2]; Mus musculus) greater than 100 µM.
For O=C(O)c1cc(NCCc2cc(C(F)(F)F)ccc2F)ccc1O [Compound 38], the IC50 ([1]; Neuron) was 0.069 µM, the IC50 ([2]; Mus musculus) was 35 µM and the “IC50 (uM) C: suppressing effect” value [3, 5] was “No”.
With O=C(O)c1cc(NCCc2ccc(F)cc2)ccc1O [Compound 39] the IC50 ([1]; Neuron) was 0.31 µM and the “IC50 (uM) B: suppressing effect on production of NO” value [2] was “No”.
O=C(O)c1cc(NCCCCc2ccccc2)ccc1O [Compound 40] was tested, and the IC50 ([1]; Neuron) was 0.073 µM, the IC50 ([2]; Mus musculus) was greater than 100 µM and the “IC50 (uM) C: suppressing effect” value [3, 5] was “No”.
For Cc1ccc(CCCNc2ccc(O)c(C(=O)O)c2)cc1 [Compound 41], the IC50 ([1]; Neuron) was 0.11 µM, the IC50 ([2]; Mus musculus) was 26.5 µM and the “IC50 (uM) C: suppressing effect” value [3, 5] was “No”.
For O=C(O)c1cc(NCCCc2ccc(C(F)(F)F)cc2)ccc1O [Compound 42], the IC50 ([1]; Neuron) was 0.062 µM, the IC50 ([2]; Mus musculus) was 6.7 µM and the IC50 [3, 6] was 68.3 µM.
With O=C(O)c1cc(NCCCc2ccc(Cl)c(Cl)c2)ccc1O [Compound 43] the IC50 ([1]; Neuron) was 0.04 µM, the IC50 ([2]; Mus musculus) was 51.8 µM and the IC50 [3, 6] was 111 µM.
For O=C(O)c1cc(NCCCc2ccc(Cl)cc2Cl)ccc1O [Compound 44], the IC50 ([1]; Neuron) was 0.12 µM and the IC50 ([2]; Mus musculus) was 51 µM.
In the case of O=C(O)c1cc(NCCc2ccc(C(F)(F)F)c(F)c2)ccc1O [Compound 45], the IC50 ([1]; Neuron) is reported as 0.1 µM and the IC50 ([2]; Mus musculus) is reported as 20.7 µM.
O=C(O)c1cc(NCCc2ccc(O)cc2)ccc1O [Compound 47] was tested, and the IC50 [1] was 0.32 µM and the IC50 [2] was 11.5 µM.
Work on O=C(O)c1cc(NCc2ccc(F)cc2)ccc1O [FBAS] yielded an IC50 [4] of 0.3 µM.
COc1ccc(CNc2ccc(O)c(C(=O)O)c2)cc1 [MBAS, 5-(4-methoxybenzyl)aminosalicylic acid] showed an IC50 ([4]; Mus musculus, Neuron) of 1.42 µM.
O=C(O)c1cc(NCc2ccc([N+](=O)[O-])cc2)ccc1O [NBAS, 5-(4-nitrobenzyl)aminosalicylic acid] was tested, and the IC50 ([4]; Mus musculus, Neuron) was 1.9 µM.
O=C(O)c1cc(NCCc2ccc([N+](=O)[O-])cc2)ccc1O [NPAA, 5-[2-(4-nitrophenyl)-ethyl]aminosalicylic acid] gave an IC50 ([4]; Mus musculus, Neuron) of 0.27 µM.
O=C(O)c1cc(NCCc2ccc(OC(F)(F)F)cc2)ccc1O [chemical 16, 2-Hydroxy-5-[2-(4-trifluoromethoxy-phenyl)-ethylamino]-benzoic acid] showed an IC50 [3, 7] of 67.5 µM.
O=C(O)c1cc(NCCc2ccc(F)c(F)c2)ccc1O [chemical 21, 5-[2-(3,4-Difluoro-phenyl)-ethylamino]-2-hydroxy-benzoic acid] showed an IC50 [3, 7] of 68 µM.
Compound O=C(O)c1cc(NCCc2ccc(Cl)cc2Cl)ccc1O [chemical 24, 5-[2-(2,4-Dichloro-phenyl)-ethylamino]-2-hydroxy-benzoic acid] has an IC50 [3, 7] of 29.2 µM.
O=C(O)c1cc(NCCCc2ccc(Cl)c(Cl)c2)ccc1O [chemical 43, 5-[3-(3,4-Dichloro-phenyl)-propylamino]-2-hydroxy-benzoic acid] was tested, and the IC50 [3, 7] was 111 µM.
